Results reported in patent US20160324153A1, “HERBICIDAL MIXTURE COMPRISING IMAZETHAPYR AND CYCLOXYDIM” (BASF AGROCHEMICAL PRODUCTS, priority 2014, published 2016).

Experiments:
Assay type in all cases: in vivo
[1] = system: BRAPL (Brachiaria plantaginea); test: Post emergence treatment, herbicidal activity against BRAPL; conditions: Example 2, post emergence; Cycloxydim 3 g ai/ha
Description: (§1) Synergism can be described as an interaction where the combined effect of two or more compounds is greater than the sum of the individual effects of each of the compounds. The presence of a synergistic effect in terms of percent control, between two mixing partners (X and Y) can be calculated using the Colby equation (Colby, S. R., 1967, Calculating Synergistic and Antagonistic Responses in Herbicide Combinations, Weeds, 15, 21-22): When the observed combined control effect is greater than the expected (calculated) combined control effect (E), then the combined effect is synergistic. […] However, the weed control afforded by the compounds, mixtures or compositions is not limited to these species. The analysis of synergism or antagonism between the mixtures or compositions was determined using Colby's equation. Analogously, the Colby's equation can be used to determine synergism of 3-way and higher mixtures. Post Emergence Treatment by the Mixture of (Imazethapyr+Imazamox)+Cycloxydim

ORYSA (Orysa sativa) = test: Post emergence treatment, herbicidal activity against ORYSA
Description: as §1, with “Mixture of Imazethapyr+Cycloxydim Post Emergence Treatment by the Mixture of (Imazethapyr+Imazamox)+Cycloxydim” for “Mixture of (Imazethapyr+Imazamox)+Cycloxydim”

[2] = system: ECHCO (Echinochloa colonum); test: Post emergence treatment, herbicidal activity against ECHCO
Description: as §1, with “Mixture of Imazethapyr+Cycloxydim Post Emergence Treatment by the Mixture of (Imazethapyr+Imazamox)+Cycloxydim” for “Mixture of (Imazethapyr+Imazamox)+Cycloxydim”

[3] = system: PHACA (Phalaris canariensis); test: Post emergence treatment, herbicidal activity against PHACA; conditions: Example 2, post emergence
Description: as §1

LEFFA (Leptochloa fusca) = test: Post emergence treatment, herbicidal activity against LEFFA; conditions: Example 1, post emergence
Description: as §1, with “Imazethapyr+Cycloxydim” for “(Imazethapyr+Imazamox)+Cycloxydim”

[4] = Example 1, post emergence, Cycloxydim 6 g ai/ha
[5] = Example 1, post emergence, Imazethapyr 7.5 g ai/ha

Row | Compound | Herbicidal activity against BRAPL, Found [1] | Herbicidal activity against ORYSA, Found (ORYSA (Orysa sativa); [4]) | Herbicidal activity against ORYSA, Found (ORYSA (Orysa sativa); Example 2, post emergence, Cycloxydim 6 g ai/ha) | Herbicidal activity against ECHCO, Found [2, 4] | Herbicidal activity against ECHCO, Found ([2]; Example 2, post emergence, Cycloxydim 3 g ai/ha) | Herbicidal activity against PHACA, Found ([3]; the 3rd table, Cycloxydim 3 g ai/ha) | Herbicidal activity against PHACA, Found ([3]; the 5th table, Cycloxydim 3 g ai/ha) | Herbicidal activity against PHACA, Found ([3]; Cycloxydim 6 g ai/ha) | Herbicidal activity against LEFFA, Found (LEFFA (Leptochloa fusca); Cycloxydim 6 g ai/ha) | Herbicidal activity against ORYSA, Found (ORYSA (Orysa sativa); [5]) | Herbicidal activity against ECHCO, Found [2, 5] | Herbicidal activity against LEFFA, Found (LEFFA (Leptochloa fusca); Imazethapyr 7.5 g ai/ha)
1 | CCCC(=NOCC)C1=C(O)CC(C2CCCSC2)CC1=O (racemic) [Cycloxydim, (5RS)-2-[(EZ)-1-(Ethoxyimino)butyl]-3-hydroxy-5-[(3RS)-thian-3-yl]cyclohex-2-en-1-one] | 0 | 20 | 20 | 50 | 0 | 0 | 0 | 60 | 40 | – | – | –
2 | CCc1cnc(C2=NC(C)(C(C)C)C(=O)N2)c(C(=O)O)c1 (racemic) [Imazethapyr, 5-ethyl-2-[(RS)-4-isopropyl-4-methyl-5-oxo-2-imidazolin-2-yl]nicotinic acid] | – | – | – | – | – | – | – | – | – | 50 | 85 | 55
